Measurements: patent publication US20210121438A1, “METHODS FOR TREATING OR PREVENTING CONFORMATION DISEASES AND METHODS FOR DRUG SCREENING” (GARAGE BRAIN SCIENCE CO., LTD, priority 2018, published 2021)

Tests used:
[1] = system: p53 aggregates in 293T cells; test: p53 aggregates in 293T cells / p53 strains (immunofluorescence with p53 antibody); format: cell-based; settings: 293T cells
Procedure: Immunohistochemistry: Fluorescence staining was performed as described previously (Wang et al., 2012). Cells were transfected with or without plasmids or siRNAs and grown for 24 to 48 hr. Cells were fixed with 3.7% paraformaldehyde in PBS at RT for 15 min and then permeabilized with 0.1% Triton X-100. The fixed cells were incubated with primary antibodies at RT for 2 hr followed by incubation with Cy2- or Cy3-labeled secondary antibodies (Molecular Probes). Slides were mounted using Vectashield DAPI H-1200 (Vector). Cellular fluorescence images were collected using an LSM710 META laser-scanning confocal microscope (Zeiss).
We observed a striking degree of heterogeneity among p53 aggregates in the cytosol of 293T cells by immunofluorescence with a p53 antibody, including long fibers (5-10 μm), short fibers (1.6-3.2 μm) and punctate aggregates (0.5-1 μm in diameter) (FIG. 16a, arrows). The length of the p53 fibers and p53 aggregates were analyzed (FIG. 16b). […] To determine whether these heterogeneous p53 amyloid patterns are inherited or are random conversions, we subcultured and isolated single colonies from heterogeneous pools of cells. […] We obtained four phenotypes shown in FIG. 16a, including long and short fibers, puncta, and diffuse nuclear staining, and these phenotypes were stably propagated (FIG. 16e). We termed these p53 phenotypes of the isolated strains as follows: p53 [L] (Long fibers), p53 [S] (Short fibers), p53 [P] (Puncta) and p53-NVA (No Visible Aggregates).
Additionally, we treated 293T cells with an Aβ amyloid disassembling agent, baicalein, following immunofluorescence staining with anti-p53 antibodies.

[2] = system: SMA mice (Smn−/−SMN2+/−); test: Motor function tests in SMA mice (turnover, tube, negative geotaxis); format: in vivo
Source text: Mice: A mouse model of SMA was produced by deleting exon 7 of the Smn gene and knock-in of the human SMN2 gene (Smn−/−SMN2+/−). We were able to generate a variant that presents a more severe disease symptomatology through back-crossing to obtain a more homogenous genetic background. This model of severe SMA harbors two copies of the SMN2 transgene (Smn−/−SMN2+/−). The mouse model of SMA was generated through crossing the heterozygous knockout mice (Smn+/−SMN2−/−) with the homozygous knockout mice carrying two copies of the SMN2 transgene (Smn−/−SMN2+/+). SMA mice were subjected to daily intraperitoneal injections of baicalein (40 mg/kg/d in alcohol) or alcohol alone (control) from birth and then subjected to motor function tests and survival analysis. Three behavioral tests, the turnover test, tube test and negative geotaxis test, were conducted to evaluate the motor function of mice with SMA (Smn−/−SMN2+/−) and heterozygous littermates (Smn+/−SMN2+/−), as previously described. In the turnover test, the time required for a mouse to right itself and place all four paws on the ground from a prone position was recorded (the cutoff time was 60 s). The tube test was used to determine hind limb strength according to the posture of the hind limbs and the tail; scores ranged from 0 (the worst) to 4 (the best). In the negative geotaxis test, mice were placed on a 45° incline with their head pointing downward. The responses (turning and climbing) were scored from 0 (the worst) to 4 (the best).
A mouse model of SMA received daily intraperitoneal injections of baicalein ([…]) from birth, and we then assessed the animals using motor function tests and survival analyses to determine whether the in vitro findings were recapitulated in a mouse model in vivo (FIG. 10i). However, after baicalein treatment, the functional performance of SMA mice, including righting time, tube score, and tilting score, was improved at the 6th postnatal day (p<0.05), and the results were similar to heterozygous littermates treated with or without baicalein. […] Our studies provide a method for restoring the functional SMN protein by modulating the folding of the SMNA7 C-terminus and SMA-associated mutants to ensure that the protein performs the cellular functions of full-length SMN.

[3] = system: SMNA7 cells; test: Morphology (neurite-like structure) of SMNA7 cells; format: cell-based; settings: baicalein
Source text: We investigate whether baicalein can act as a pharmacological chaperone to refold misfolded SMNA7 into a functional prion-like domain, as shown in FIG. 8 (FIG. 10a). […] PFN1 is a known SMN interactor in the cytosol. We further examined whether baicalein attenuated the degradation of the SMNA7 protein. […] We found baicalein increased the length of axons from NSC34 cells expressing SMNA7 by approximately 2-fold (FIG. 10g).

[4] = system: TDP-43-mediated CFTR exon 9 skipping; test: Alternative splicing assay (in vivo splicing, CFTR minigene); format: cell-based
Procedure: Alternative Splicing Assay: TDP-43-mediated CFTR exon 9 skipping assays were performed as previously described. Briefly, cells were cotransfected with TDP-43 plasmid, hCF-(TG)13(T)5 minigenes and the indicated plasmids, including VCP/p97 wt, VCP/p97 QQ, HSPB1, lamin A or progeria, or HSPB1 siRNA. Total RNA of transfectanted cells was isolated by TRIzol reagent (Invitrogen), and RT-PCR was carried out by Superscript III (Invitrogen) using specific primers to amplify exons 8-10 of CFTR according to the manufacturer's protocol. The relative amounts of cDNA were validated on 1.3% agarose gels. […]

[5] = SMA mice, daily intraperitoneal baicalein 13.6 mg/kg/d from birth, 6th postnatal day, p<0.05

## O=c1cc(-c2ccccc2)oc2cc(O)c(O)c(O)c12 [baicalein]
[1]; 25 μM baicalein
  p53 misfolded aggregates: reduced p53 misfolded aggregates
[1]; baicalein
  spontaneous aggregation of p53: suppressed the spontaneous aggregation of p53
[2]; 8th postnatal day, p=0.009
  functional performance in the tube test versus control SMA mice: better than that of the control SMA mice
[2]; 8th postnatal day, p=0.58
  functional performance better than control SMA mice in the negative geotaxis test: not
[2]; [5]
  righting time (turnover test): improved
  tilting score (negative geotaxis test): improved
  tube score: improved
[3]
  neurite-like structure of SMNA7 cells: increased the neurite-like structure of SMNA7 cells
[4]; VCP/p97-QQ-expressing cells
  CFTR exon 9 skipping: increased CFTR exon 9 skipping
[4]; cells co-transfected with TDP-43 and VCP/p97 R155H mutant
  failure of TDP-43 to promote CFTR exon 9 skipping: corrected
[4]; cells expressing VCP/p97-QQ
  dysfunction caused by FTLD/ALS-linked sporadic mutation R361S of TDP-43: rescued dysfunction
  dysfunction of proline substitution mutant GFP-TDP-43-Q303P: rescued dysfunction
[4]; cells expressing progeria
  TDP-43 dysfunction (CFTR exon 9 skipping): rescued TDP-43 dysfunction caused by progeria in a dose-dependent manner
[4]; cells expressing progeria, baicalein 10 μm
  restoring ratio of exon skipping: 1.31
[4]; cells expressing progeria, baicalein 50 μm
  restoring ratio of exon skipping: 1.91
[4]; cells treated with only baicalein, TDP-43 overexpressed
  TDP-43-mediated CFTR exon 9 skipping: enhanced ability to promote the TDP-43-mediated CFTR exon 9 skipping in a dose-dependent manner
[4]; without co-overexpressing TDP-43 proteins
  exon skipping of CFTR: no effect
